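Results reflect a 48-hour exposure of cells in 96-well plates to compound at five concentrations. GI50: concentration for 50% inhibition of growth.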 The source made the active and inactive calls. Cut-off read from the data, not from the text of the source: active = GI50 up to about 1.1 µM and inactive = higher.
Columns and labels:
Experiment in all cases: inhibition of tumour cell growth, NCI panel, 48 h
HOP-92 = system: HOP-92
IGROV-1 = system: IGROV-1
OVCAR-4 = system: OVCAR-4
SR = system: SR
Malme-3M = system: Malme-3M
SNB-19 = system: SNB-19
MDA-MB-435 = system: MDA-MB-435
OVCAR-5 = system: OVCAR-5
BT-549 = system: BT-549
HT-29 = system: HT-29
UO-31 = system: UO-31
KM12 = system: KM12
MCF7 = system: MCF7
SW-620 = system: SW-620
HCT-15 = system: HCT-15
RXF 393 = system: RXF 393
LOX IMVI = system: LOX IMVI
RPMI-8226 = system: RPMI-8226
SNB-75 = system: SNB-75
CCRF-CEM = system: CCRF-CEM

SMILES | GI50 (HOP-92) | GI50 (IGROV-1) | GI50 (OVCAR-4) | GI50 (SR) | GI50 (Malme-3M) | GI50 (SNB-19) | GI50 (MDA-MB-435) | GI50 (OVCAR-5) | GI50 (BT-549) | GI50 (HT-29) | GI50 (UO-31) | GI50 (KM12) | GI50 (MCF7) | GI50 (SW-620) | GI50 (HCT-15) | GI50 (RXF 393) | GI50 (LOX IMVI) | GI50 (RPMI-8226) | GI50 (SNB-75) | GI50 (CCRF-CEM)
CN(Cc1cc(Cl)cc(Cl)c1O)Cc1c(O)ccc2ccccc12 | 20.1 µM (inactive) | 17.3 µM (inactive) | 17.1 µM (inactive) | 23.8 µM (inactive) | 14.9 µM (inactive) | 19.8 µM (inactive) | 19.1 µM (inactive) | 23.1 µM (inactive) | 17 µM (inactive) | 27.9 µM (inactive) | 17.3 µM (inactive) | 19.9 µM (inactive) | 17.5 µM (inactive) | 31.7 µM (inactive) | 17.6 µM | 13.5 µM (inactive) | 16.7 µM (inactive) | 25 µM (inactive) | 16.7 µM (inactive) | 
NC(Cc1c[nH]c2ccccc12)P(=O)(O)O (stereo not given) | > 10 µM (inactive) | > 100 µM (inactive) | > 100 µM (inactive) | > 100 µM (inactive) | > 100 µM (inactive) | > 100 µM (inactive) | > 100 µM (inactive) | > 100 µM (inactive) | > 100 µM (inactive) | > 100 µM (inactive) | > 100 µM (inactive) | > 100 µM (inactive) | > 100 µM (inactive) | > 100 µM (inactive) | > 100 µM | > 100 µM (inactive) |  | > 100 µM (inactive) | > 100 µM (inactive) | > 100 µM (inactive)
COc1cc(/C=C2\N=C(c3ccccc3)N(/N=C/c3cc4cc(C)ccc4nc3Cl)C2=O)cc(OC)c1OC | 54.6 µM (inactive) | 33.3 µM (inactive) | 37.5 µM (inactive) | 19.4 µM (inactive) |  | 64.7 µM (inactive) | 15.8 µM (inactive) | > 100 µM (inactive) | 52.2 µM (inactive) | 38.4 µM (inactive) | 48.6 µM (inactive) | 31.8 µM (inactive) | 27.4 µM (inactive) | 41.2 µM (inactive) | 32.4 µM |  | 32.1 µM (inactive) | 20.5 µM (inactive) | 17.1 µM (inactive) | 
O=C(Cn1c2c(c3ccccc31)CCCC2)N1CCCCC1 | > 100 µM (inactive) | > 100 µM (inactive) | > 100 µM (inactive) | > 100 µM (inactive) | > 100 µM (inactive) | > 100 µM (inactive) | > 100 µM (inactive) | > 100 µM (inactive) | > 100 µM (inactive) | > 100 µM (inactive) | > 100 µM (inactive) |  | > 100 µM (inactive) | > 100 µM (inactive) | > 100 µM |  | > 100 µM (inactive) | > 100 µM (inactive) |  | 
Nc1ncnc2c1ncn2Cc1cccc(CCl)c1 | 19.7 µM (inactive) | 16.3 µM (inactive) | 20.3 µM (inactive) | 6.43 µM (inactive) | 17.9 µM (inactive) |  | 19.1 µM (inactive) | 14.5 µM (inactive) | 12.8 µM (inactive) | 22.8 µM (inactive) | 16.5 µM (inactive) | 15.1 µM (inactive) | 10 µM (inactive) | 12.4 µM (inactive) | 17.9 µM | 3.88 µM (inactive) | 20.1 µM (inactive) | 5.38 µM (inactive) | 30.1 µM (inactive) | 
O=C(O)c1nc(-c2ccccc2)ncc1-c1nnnn1-c1ccccc1 | > 100 µM (inactive) | > 100 µM (inactive) |  | > 100 µM (inactive) | > 100 µM (inactive) | > 100 µM (inactive) | > 100 µM (inactive) | > 100 µM (inactive) | > 100 µM (inactive) | > 100 µM (inactive) | > 100 µM (inactive) | > 100 µM (inactive) | > 100 µM (inactive) | > 100 µM (inactive) | > 100 µM | > 100 µM (inactive) | > 100 µM (inactive) | > 100 µM (inactive) | > 100 µM (inactive) | > 100 µM (inactive)
COc1cc2c(cc1OC)CC(N=[N+]=[N-])c1cc(OC)c(OC)cc1/C=C\2 (stereo not given) | 12.9 µM (inactive) | 50.9 µM (inactive) | 99.3 µM (inactive) | > 100 µM (inactive) |  | 34 µM (inactive) | 10.8 µM (inactive) | > 100 µM (inactive) | 0.826 µM (active) | 44.5 µM (inactive) | 38.5 µM (inactive) | 30.2 µM (inactive) | 49.7 µM (inactive) | 83.6 µM (inactive) | 40.1 µM |  | 40.6 µM (inactive) | 35.3 µM (inactive) | 16.6 µM (inactive) | 
O=C(CC(=O)N(C(=O)c1ccccc1)c1ccc(Cl)cc1)N/N=C\c1cc(/N=N/c2ccccc2Cl)ccc1O | 23.5 µM (inactive) | > 100 µM (inactive) |  | 17.9 µM (inactive) | > 100 µM (inactive) | 18.2 µM (inactive) | > 100 µM (inactive) | > 100 µM (inactive) | > 100 µM (inactive) | > 100 µM (inactive) | 45.6 µM (inactive) | 26.3 µM (inactive) | > 100 µM (inactive) | > 100 µM (inactive) | 75.7 µM | 29.8 µM (inactive) | > 100 µM (inactive) | 68.2 µM (inactive) | 12.4 µM (inactive) | 25.1 µM (inactive)
Nc1cc(N)c(/N=N/c2cccc3c(S(=O)(=O)O)cccc23)cc1/N=N/c1cc([N+](=O)[O-])ccc1O | 35.6 µM (inactive) | 15.6 µM (inactive) | 18.4 µM (inactive) | 13.5 µM (inactive) | 17.3 µM (inactive) | 48.9 µM (inactive) | 35.6 µM (inactive) | 23.3 µM (inactive) | 31.6 µM (inactive) | 43.8 µM (inactive) | 19 µM (inactive) | 33.2 µM (inactive) | 32.6 µM (inactive) | 28.8 µM (inactive) | 22.1 µM | 70.3 µM (inactive) | 13.6 µM (inactive) | 35.6 µM (inactive) | 49.1 µM (inactive) | 
O=S(=O)(O)C1CCC(O)C2NCCCC21 (stereo not given) | > 100 µM (inactive) | > 100 µM (inactive) | > 100 µM (inactive) | > 100 µM (inactive) | > 100 µM (inactive) | > 100 µM (inactive) | > 100 µM (inactive) | > 100 µM (inactive) | > 100 µM (inactive) | > 100 µM (inactive) | > 100 µM (inactive) | > 100 µM (inactive) | > 100 µM (inactive) | > 100 µM (inactive) | > 100 µM | > 100 µM (inactive) | > 100 µM (inactive) | > 100 µM (inactive) | > 100 µM (inactive) | 
O=C(O)c1ccccn1 [2-PICOLINIC ACID] | > 100 µM (inactive) | > 100 µM (inactive) | > 100 µM (inactive) | > 100 µM (inactive) |  | > 100 µM (inactive) | > 100 µM (inactive) | > 100 µM (inactive) | > 100 µM (inactive) | > 100 µM (inactive) | > 100 µM (inactive) | > 100 µM (inactive) | > 100 µM (inactive) | > 100 µM (inactive) | > 100 µM | > 100 µM (inactive) |  | > 100 µM (inactive) | > 100 µM (inactive) | > 100 µM (inactive)
